Source: patent US8236523B2, “Camp reporters and high throughput assays” (The Johns Hopkins University, priority 2004, dated 2012)

Legend:
Assay type in all cases: cell-based
cAMP [1] = test: Dual-emission ratio (FRET) imaging of Epac-based cAMP reporters (ICUE1 and targeted fusions) in HEK-293 cells; details: HEK293 cells expressing ICUE1; 10 μM ISO, 50 μM FSK, 10 μM PGE1, 300 μM 8-pCPT-2′-O-Me-cAMP; average ± S.E.M
Experimental: Cell Culture. […] Cells were then transfected with FuGENE-6 transfection reagent (Roche) or calcium phosphate and allowed to grow for 12-24 hours before imaging.
Imaging. Cells were washed twice with Hanks' balanced salt solution buffer after 12- to 24-h incubation at 37° C. culture medium. Cells were maintained in buffer in the dark at room temperature with addition of isoproterenol (Aldrich), forskolin (Calbiochem), Prostaglandin E1 (PGE1) (Sigma), and 8-(4-chloro-phenylthio)-2′-O-methyl adenosine 3′,5′-monophosphate (8-pCPT-2′-O-Me-cAMP) (Axxora Biolog) as indicated. Cells were also treated with P-(4,5-dimethoxy-2-nitrobenzyl) adenosine 3′,5′-monophosphate (DMNB-cAMP) (Molecular Probe).
Cells were imaged on a Zeiss Axiovert 200M microscope with a cooled charge-coupled device camera MicroMAX BFT512 (Roper Scientific) controlled by METAFLUOR 6.2 software (Universal Imaging). Dual-emission ratio imaging used a 420DF20 excitation filter, a 450DRLP dichroic mirror and two emission filters (475DF40 for ECFP, 535DF25 for citrine) alternated by a filter changer Lambda 10-2 (Sutter Instruments). Exposure time was 100-500 ms and images were taken every 8-30 s. Fluorescent images were background-corrected by subtracting autofluorescence intensities of untransfected cells (or background with no cells) from the emission intensities of fluorescent cells expressing reporters. The ratios of cyan to yellow emissions were then calculated at different time points and normalized by dividing all ratios by the emission ratio just prior to stimulation therefore setting the basal emission ratio to 1.

cAMP [2] = test: 96-well live cell plate reading of HEK293 cells expressing ICUE3; details: HEK293 cells expressing ICUE3, 1 μM ISO, 50 μM FSK
Experimental: Plate reading used a 420DF20 excitation filter and two emission filters (470DF40 for cyan and 535DF25 for yellow). A baseline was established in three cycles, each consisting of a full plate reading of yellow intensity, followed by a reading of cyan intensity. Cells were then treated with isoproterenol (ISO; Aldrich), forskolin (Calbiochem), H89, propranolol, and 3-isobutyl-1-methylxanthine (IBMX) as indicated. Readings were taken in six or twenty additional cycles. Each cycle lasted 60 to 145 sec. Baseline FRET ratios were calculated as the average ratio of yellow/cyan for each well before the addition of drug. FRET change was calculated as the percent increase of FRET ratio over baseline for each well during a given cycle. The FRET changes of all wells having undergone the same drug treatment were then averaged within each cycle, and that cycle was correlated with time.
Live cell plate reading. HEK293 cells were transfected with cDNA encoding ICUE reporters using calcium phosphate at 40% confluency and allowed to grow for 40 hours. Cells were then trypsinized and plated in a Costar 3603 96-well assay plate (Coming) at a density of 150,000 cells per well. After incubation for another 24 hours, cells were washed once with HBSS and left in 150 μl HBSS at 20-25° C. Fluorescence reading was taken on a FLUOstar OPTIMA fluorescence microplate reader (BMG Labtechnologies Inc.) using a 420DF20 excitation filter and two emission filters (470DF40 for cyan and […] for yellow). A baseline was established in three cycles, each consisting of a full plate reading of yellow intensity, followed by a reading of cyan intensity. Each cycle lasted between 64 and 145 seconds. Readings were taken in additional cycles. FRET change was calculated as the percent increase of emission ratios (cyan-to-yellow) over baseline for each well during a given cycle. To assess the efficacy of the assay, several statistical parameters were calculated, including Z factor, coefficient of variation, and signal-to-noise ratio (Zhang et al., J. Biomol. Screen. 4, 67-73, 1999).

cAMP [3] = test: High throughput 96-well plate assay using ICUE2 stable HEK293 cells; details: 1 μM Iso, 50 μM Fsk, 10 μM H89, 100 μM IBMX
Experimental: HEK293 cells which stably express ICUE2 (“ICUE2 stable HEK293 cells”) were grown to confluency in 10 cm dishes in DMEM, 10% FBS, 1% penicillin/streptomycin, and 250 μg/ml G418. HEK-293 cells were transfected with cDNA encoding ICUE2 using calcium phosphate at 40% confluency and allowed to grow for 40 hours. Cells were removed from the dish using 0.05% trypsin, spun down, and replaced with fresh media. ICUE2 stable HEK293 cells were counted on a hemocytometer using trypan blue stain. One hundred fifty thousand (150,000) cells were plated per well on a 96-well clear bottom assay plate in a total of 0.2 ml of media per […] and allowed to double once. Media was removed, cells were washed with Hanks buffered salt solution (HBSS) and then covered with 0.05 ml of HBSS per well. In a separate sterile plate, appropriate drugs were added to each well containing HBSS for a total volume of 0.05 ml. […] A baseline was established in three cycles, each consisting of a full plate reading of yellow intensity, followed by a reading of cyan intensity. Cells were then treated with isoproterenol (ISO; […] Readings were taken in six or twenty additional cycles. […] Baseline FRET ratios were calculated as the average ratio of yellow/cyan for each well before the addition of drug. FRET change was calculated as the percent increase of FRET ratio over baseline for each well during a given cycle. The FRET changes of all wells having undergone the same drug treatment were then averaged within each cycle, and that cycle was correlated with time.

C=C[C@@]1(C)CC(=O)[C@]2(O)[C@@]3(C)[C@@H](O)CCC(C)(C)[C@@H]3[C@H](O)[C@H](OC(C)=O)[C@@]2(C)O1 [forskolin]
increase in the ratio of cyan to yellow emissions (FRET response) (cAMP [1]): 19.6%±1.0
Average percent FRET response ± standard deviation, 0 sec. (cAMP [2]; 0 sec., 10 μM PRO, 100 μM IBMX, 10 μM H89): 9.05% ± 3.18%
Average percent FRET response ± standard deviation, 145 sec. (cAMP [2]; 145 sec., 10 μM PRO, 100 μM IBMX, 10 μM H89): 13.0% ± 3.17%
Average percent FRET response ± standard deviation, 290 sec. (cAMP [2]; 290 sec., 10 μM PRO, 100 μM IBMX, 10 μM H89): 14.8% ± 3.35%
Average percent FRET response ± standard deviation, 435 sec. (cAMP [2]; 435 sec., 10 μM PRO, 100 μM IBMX, 10 μM H89): 16.7% ± 3.33%
Average percent FRET response ± standard deviation, 580 sec. (cAMP [2]; 580 sec., 10 μM PRO, 100 μM IBMX, 10 μM H89): 16.8% ± 3.27%
Average percent FRET response ± standard deviation, 725 sec. (cAMP [2]; 725 sec., 10 μM PRO, 100 μM IBMX, 10 μM H89): 17.9% ± 3.63%
maximal response / emission ratio change (cAMP [2]; n=7): 17.9%±3.6%
Average percent FRET response ± standard deviation, cycle 1 (cAMP [3]; cycle 1 (1 cycle = 60 seconds)): 0.36% ± 7.51%
Average percent FRET response ± standard deviation, cycle 2 (cAMP [3]; cycle 2 (1 cycle = 60 seconds)): 2.67% ± 4.53%
Average percent FRET response ± standard deviation, cycle 3 (cAMP [3]; cycle 3 (1 cycle = 60 seconds)): 8.71% ± 6.66%
Average percent FRET response ± standard deviation, cycle 4 (cAMP [3]; cycle 4 (1 cycle = 60 seconds)): 15.29% ± 3.37%
Average percent FRET response ± standard deviation, cycle 5 (cAMP [3]; cycle 5 (1 cycle = 60 seconds)): 15.23% ± 6.55%
Average percent FRET response ± standard deviation, cycle 6 (cAMP [3]; cycle 6 (1 cycle = 60 seconds)): 18.73% ± 3.97%
Average percent FRET response ± standard deviation, cycle 7 (cAMP [3]; cycle 7 (1 cycle = 60 seconds)): 20.79% ± 4.6%
Average percent FRET response ± standard deviation, cycle 8 (cAMP [3]; cycle 8 (1 cycle = 60 seconds)): 22.82% ± 4.58%
Average percent FRET response ± standard deviation, cycle 9 (cAMP [3]; cycle 9 (1 cycle = 60 seconds)): 24.98% ± 3.69%
Average percent FRET response ± standard deviation, cycle 10 (cAMP [3]; cycle 10 (1 cycle = 60 seconds)): 23.4% ± 4.53%
Average percent FRET response ± standard deviation, cycle 11 (cAMP [3]; cycle 11 (1 cycle = 60 seconds)): 24.46% ± 3.51%
Average percent FRET response ± standard deviation, cycle 12 (cAMP [3]; cycle 12 (1 cycle = 60 seconds)): 25.44% ± 2.14%
Average percent FRET response ± standard deviation, cycle 13 (cAMP [3]; cycle 13 (1 cycle = 60 seconds)): 24.97% ± 3.91%
Average percent FRET response ± standard deviation, cycle 14 (cAMP [3]; cycle 14 (1 cycle = 60 seconds)): 25.6% ± 4.31%
Average percent FRET response ± standard deviation, cycle 15 (cAMP [3]; cycle 15 (1 cycle = 60 seconds)): 27.0% ± 1.87%
Average percent FRET response ± standard deviation, cycle 16 (cAMP [3]; cycle 16 (1 cycle = 60 seconds)): 25.84% ± 3.57%
Average percent FRET response ± standard deviation, cycle 17 (cAMP [3]; cycle 17 (1 cycle = 60 seconds)): 26.32% ± 1.66%
Average percent FRET response ± standard deviation, cycle 18 (cAMP [3]; cycle 18 (1 cycle = 60 seconds)): 25.94% ± 3.05%
Average percent FRET response ± standard deviation, cycle 19 (cAMP [3]; cycle 19 (1 cycle = 60 seconds)): 25.98% ± 2.13%
Average percent FRET response ± standard deviation, cycle 20 (cAMP [3]; cycle 20 (1 cycle = 60 seconds)): 25.51% ± 1.67%
